Patent publication US7367941B2, “Detection and characterization of cholinergic oscillatory control in peripheral microvasculature” (Yale University, priority 2000, dated 2008)

Legend:
Type in all cases: in vivo, human
[1] = test system: forehead microvasculature; assay: Laser Doppler flowmetry of forehead flux, spectral- and time-domain analysis, during phenylephrine challenge and added atropine
[2] = test system: forehead microvasculature; assay: as above; conditions: for beat-to-beat % change of forehead flux: p<0.05; for flux at the forehead: mean (SE)
Description: (§1) With IRB approval, 15 healthy nonsmoking male volunteers were instructed to refrain from caffeine and other known vasoactive compounds for at least 24 hours prior and then lie recumbent in a temperature-regulated room (70±1° F.). Surface electrodes were applied for monitoring ECG and respiration, a noninvasive BP cuff was placed over the brachial artery of one arm, and a 22 gauge intravenous catheter was placed in the opposite arm. In the first eight subjects, laser Doppler flowmetry probes (Periflux 2B, Perimed, Sweden) then were applied to the skin via double-stick tape on the forehead and on the finger contralateral to the BP cuff. In the remaining seven subjects, the sites of laser Doppler monitoring were modified and additional monitors were applied (see Example 3).
(§2) The ECG, respiration, and laser Doppler flux were recorded at 250 Hz with a microprocessor-based system which consisted of analog to digital converters, commercially available data acquisition and waveform analysis software (SnapMaster, HEM Data Corp.) and customized software for beat detection. Each R-wave was identified using the recommended combination of derivative plus threshold detection of the fiducial point of the data sampled at 250 Hz (Task Force of the European Society of Cardiology and the North American Society of Pacing and Electrophysiology: Heart rate variability. Standards of measurement, physiological interpretation, and clinical use. Circulation 1996;93:1043-1065). Ectopic beats were to be replaced with an interpolated value, but none were noted. BP was recorded at 2-5 min intervals.
(§3) Following 5 min of baseline (BASE) monitoring during spontaneous ventilation BASESPONT), each subject breathed in synchrony with an audible metronome at a rate of 12 breaths/min (BASEMETRO); each segment lasted 5 min (of which the middle 200 sec were used for subsequent analysis). Subjects then received an infusion of phenylephrine, which was titrated until there was >25% decline in finger flow for 10 min. […] Five minutes of data during this PHENYL phase were recorded during SPONT and during METRO (PHENYLSPONT and PHENYLMETRO). Atropine was then administered IV in 0.25-0.50 mg increments until HR was at least 33% above PHENYL. Measurements during this PH+ATR phase were recorded for 5 min during each of the two respiratory patterns (PH+ATRSPONT and PH+ATRMETRO). The phenylephrine then was discontinued. The values from all subjects were averaged to provide the overall means±standard error (SE) for the sampling periods that are summarized in the FIGS. 5-8.
(§4) The frequency and power of the oscillations of the R-R intervals and laser Doppler flux values (flux) were characterized by frequency-domain analysis. As described in the prior art (Task Force of the European Society of Cardiology, 1996), the “R-R tachogram” and laser Doppler signal were resampled at 5 Hz, a rate more than sufficient to enable identification of oscillatory frequencies within the frequency range of interest (according to Nyquist's theorem and recent Task Force recommendations (see Task Force of the European Society of Cardiology, 1996)). An APSD was then generated for the R-R interval [APSDR-R (msec^2/Hz vs. Hz)], for the laser Doppler signal taken at the forehead [APSDFOREHEAD FLUX (mVolt^2/Hz vs. Hz)], and for the laser Doppler signal taken at the finger [APSDFINGER (mvolt^2/Hz vs. Hz)] in each subject using a traditional (Parzan) window. For each APSD, 200 sec of data were resampled at 5 Hz, providing a spectral resolution of 0.005 Hz (5 cycles per sec/1,000 data points); the mean value of the signal was subtracted from the data to eliminate its influence on the APSD. For purposes of presentation, each pair of adjacent 0.005 Hz bins was summated to provide bins with a width of 0.01 Hz. […]

[3] = test system: R-R intervals of the electrocardiogram; assay: ECG R-R interval variability (APSDR-R, time-domain indices), HR and BP during phenylephrine and added atropine; conditions: for effect on BP and HR (R-R interval): spontaneous and metronome breathing
Description: as §1, §2, §3, §4

[4] = test system: forehead flux and R-R oscillations; assay: Cross power spectral density of forehead flux and R-R after normalization to mean; conditions: PHENYL
Description: FIGS. 11A-D are a graphical comparison of normalized data in the time and frequency-domains, in accordance with the present invention. The signals were normalized prior to time and frequency domain analysis, as follows: (1) LDF flow data was resampled at 5 Hz (data from FIG. 5); (2) mean flow data for the entire study segment (i.e., 5.33522) was determined; and (3) the normalized values were obtained by dividing each resampled value by the corresponding mean value for the study segment. Normalization facilitates visual inspection as well as time-domain and spectral-domain comparisons of the oscillatory signal(s) to values under different circumstances (e.g. baseline vs. challenge state) or to the values of another parameter. Although the values in FIG. 11 were normalized to the mean, it may be preferable in some settings to normalize to the median since this is less affected by outliers. […] The CPSD is calculated by determining the normalized power of a signal from the instantaneous amplitude-spectrum using the following equation: Gab=ave(SaSb*)/df where Gab=instantaneous amplitude spectral density of the sampling channels; Sa=instantaneous amplitude spectrum of channel a; Sb*=complex conjugate of Sb; df=frequency resolution. […]

finger microvasculature = assay: Laser Doppler flowmetry of finger flux during phenylephrine infusion
Description: as §1, with “In the remaining seven subjects, the sites of laser Doppler monitoring were modified and additional monitors were applied (see Example 3).” left out
The ECG, respiration, and laser Doppler flux were recorded at 250 Hz with a microprocessor-based system which consisted of analog to digital converters, commercially available data acquisition and waveform analysis software (SnapMaster, HEM Data Corp.) and customized software for beat detection. […] BP was recorded at 2-5 min intervals.
Following 5 min of baseline (BASE) monitoring during spontaneous ventilation BASESPONT), each subject breathed in synchrony with an audible metronome at a rate of 12 breaths/min (BASEMETRO); each segment lasted 5 min (of which the middle 200 sec were used for subsequent analysis). […] Five minutes of data during this PHENYL phase were recorded during SPONT and during METRO (PHENYLSPONT and PHENYLMETRO). […]

## CNC[C@H](O)c1cccc(O)c1 [phenylephrine]
[1]; one subject, phenylephrine infusion, continuous intra-arterial monitoring
  maxbin frequency of the APSDFOREHEAD FLUX: 0.13 Hz
[1]; two subjects, phenylephrine bolus
  frequency at which forehead oscillations increased: approximately 0.13 Hz
[2]; METRO, PHENYL, BASE 1.3(0.5), p=0.0005
  Power/bin of the APSDFOREHEADFLUX: 6.5(2.2) mvolt^2/Hz
[2]; METRO, PHENYL, BASE 4.9 (1.1)%
  beat-to-beat % change of forehead flux: 11.9 (2.3) %
[2]; METRO, PHENYL, BASE 10.2(5.5), p=0.0003
  Maxbin power of APSDFOREHEADFLUX: 101.7(39.7) mvolt^2/Hz
[2]; PHENYLMETRO
  normalized maxbin power of APSDFOREHEADFLUX, % of average power/bin at BASE: 7,304(1,630) %
[2]; PHENYLMETRO, p>0.4 vs BASE 2.1 (0.5)
  flux at the forehead: 2.3 (0.6) volts
[2]; PHENYLSPONT
  frequency of atropine-sensitive peak in APSDFOREHEADFLUX: 0.14±0.02 Hz
  normalized maxbin power of APSDFOREHEADFLUX, % of average power/bin at BASE: 8,061(4,550) %
[2]; PHENYLSPONT, p>0.3 vs BASE 2.1 (0.5)
  flux at the forehead: 1.5 (0.6) volts
[2]; SPONT, PHENYL, BASE 3.4 (0.3)%
  beat-to-beat % change of forehead flux: 10.7 (2.2) %
[2]; phenylephrine infusion, METRO (0.20 Hz breathing)
  frequency of maxbin / oscillatory peak in APSDFOREHEADFLUX: 0.14±0.02 Hz
[3]; METRO, PHENYL, BASE 475.4 (111.7)
  power/bin for each of the 26 bins in the APSDR-R: 393.8 (100.9) msec^2/Hz
[3]; METRO, PHENYL, BASE 799.7 (138.2)%
  normalized power of the max bin (0.2 Hz) of APSDR-R: 1050.0 (205.8) %
[3]; METRO, PHENYL, BASE 4,354 (1556.0)
  power of the max bin of the RF band of APSDR-R: 4060.2 (996.2) msec^2/Hz
[3]; metronome breathing, PHENYL, BASE 4.3 (0.6)%, p=0.2
  beat-to-beat % change of R-R: 5.6 (0.7) %
[3]
  effect on BP and HR (R-R interval): increase in BP and slowing of HR
[3]; spontaneous breathing, PHENYL, BASE 3.2 (0.4)%, p=ns
  beat-to-beat % change of R-R: 3.7 (0.4) %
[4]; BASE 32.3±10.7%, p=0.004
  degree to which maxbin in IF band of CPSDFLUX&R-R reflected power in maxbin of APSDFOREHEADFLUX/mean: 7.0±1.8%
[4]; BASE 33.6±11.0%, p=0.002
  relative degree to which maxbin in IF band of APSDR-R/mean reflected power in maxbin of CPSDFLUX&R-R: 7.3±1.8%
Finger microvasculature; phenylephrine infusion
  atropine-sensitive oscillations in the finger: did not induce atropine-sensitive oscillations in the finger
Finger microvasculature; phenylephrine infusion 0.4-0.6 μg/kg/min, both METRO and SPONT, p<0.05
  Finger flux decline: approximately 50%

## CN1[C@@H]2CC[C@H]1C[C@@H](OC(=O)C(CO)c1ccccc1)C2 (some centres unmarked) [atropine]
[2]; atropine IV added to phenylephrine infusion (PH+ATR), METRO, p=NS vs BASE
  effect on maxbin power of APSDFOREHEADFLUX: reduced power in the maxbin to near-BASE
[2]; atropine added to phenylephrine
  effect on phenylephrine-induced HF forehead oscillatory signal: nearly eliminated
[3]; atropine added to phenylephrine, SPONT and METRO
  effect on power in the max bin of APSDR-R: decrease significantly below BASE values
[3]
  effect on BP and HR (R-R interval): exacerbated the increase in BP and reversed the prolongation of the R-R interval
